According to patent US20240209456A1, “METHODS AND COMPOSITIONS RELATED TO CELL-CYCLE RNA's” (BETH ISRAEL DEACONESS MEDICAL CENTER, priority 2021, published 2024):
*1 amine or outer side, *2 acyl side, *3 side chain or, on linkers, in order; H or OH if unused. Where a SMILES comes first, the peptide text is derived from it. Bridges are numbered along the chain shown (N, C = ends). Roman numbers before positions name the chains, in order. [ ]: non-standard residue; d: D form. Actinocin(9to1) = Cc1c2oc3c(C)ccc(C(=O)[*:1])c3nc-2c(C(=O)[*:2])c(N)c1=O; NMeV = CN[C@H](C(=O)O)C(C)C; Sar = CNCC(=O)O

What was measured:
Assay type in all cases: cell-based, human
PU.1 SPEARs = test: qRT-PCR / strand-specific qRT-PCR of PU.1 SPEARs; conditions: HL-60, DRB and ActD, FIG. 10C
Experimental: (§1) Total RNA isolation was carried out and all RNA samples used in this study were treated with DNase I (10 U of DNase I per 3 μg of total RNA; 37° C. for one hour; in the presence of RNase inhibitor). After DNase I treatment, RNA samples were extracted with acidic phenol (pH 4.3) to eliminate any remaining traces of DNA. cDNA syntheses were performed with Random Primers (Invitrogen) or gene-specific primers with Transcriptor Reverse Transcriptase (Roche Applied Science) according to the manufacturer's recommendation. cDNA was purified with a High Pure PCR Product Purification Kit (Roche Applied Science).
Sybr green reaction was performed using iQ Sybr Green supermix (Biorad, Hercules, CA) using the following parameters: 95° C. (10 min), 40 cycles of 95° C. (15 s) and 60° C. (1 min) 72° C. (1 min). TaqMan analysis was performed using Hotstart Probe One-step qRT-PCR master mix (USB) at the following conditions: 50° C. (10 min.), 95° C. (2 min.), and then 40 cycles of 95° C. (15 sec.) and 60° C. (60 sec.). […]

acH2A.Z = test: Western blot of total proteins, acH2A.Z normalized by H2A.Z; conditions: HL-60, 2 hours; 200 μM MG149, 500 μM TH1834
Experimental: Whole-cell lysates from approximately 0.2×10^6 cells per each sample were separated on 12% SDS-PAGE gels and transferred to a nitrocellulose membrane. Immunoblots were stained overnight at 4° C. with the following primary antibodies: H2A.Z (1:2,000; Abcam ab4174), H2A.Z acetyl (K4+K7+K11) (1:2,000; Abcam ab18262) or TIP60 (1:1000; generous gift from Bruno Amati). All secondary horseradish peroxidase (HRP)-conjugated antibodies were diluted 1:5,000 and incubated for 1 hr at room temperature with TBST/5% BSA. Immuno-reactive proteins were detected using the Pierce® ECL system (Thermo Scientific #32106).

c-MYC mRNA = test: qRT-PCR of c-MYC mRNA; conditions: HL-60 released from double thymidine block, 2 hrs; MG149 200 μM, TH1834 500 μM
Experimental: as §1
Sybr green reaction was performed using iQ Sybr Green supermix (Biorad, Hercules, CA) using the following parameters: 95° C. (10 min), 40 cycles of 95° C. (15 s) and 60° C. (1 min) 72° C. (1 min). TaqMan analysis was performed using Hotstart Probe One-step qRT-PCR master mix (USB) at the following conditions: 50° C. (10 min.), 95° C. (2 min.), and then 40 cycles of 95° C. (15 sec.) and 60° C. (60 sec.).
Nascent RNA/DNA capture was performed using Click-iT Nascent RNA Capture Kit (ThermoFisher) according to the manufacturer's instructions with minor modifications. Briefly, 1. Labeling the cells with EU/EdU. 200 mM EU or 30 mM EdU stock solutions were added to the cells, to a final concentration 0.5 mM or 30 μM, respectively. 2. Incubation. The cells were incubated for 1 or 2 hours. 3. […]

| Structure (SMILES) | PU.1 SPEARs level upon transcription inhibitors (PU.1 SPEARs) | level of acH2A.Z normalized by H2A.Z (acH2A.Z) | response of total c-MYC mRNA (c-MYC mRNA) |
| --- | --- | --- | --- |
| Cc1c2oc3c(C)ccc(C(=O)N[C@@H]4C(=O)N[C@H](C(C)C)C(=O)N5CCC[C@H]5C(=O)N(C)CC(=O)N(C)[C@@H](C(C)C)C(=O)O[C@@H]4C)c3nc-2c(C(=O)N[C@@H]2C(=O)N[C@H](C(C)C)C(=O)N3CCC[C@H]3C(=O)N(C)CC(=O)N(C)[C@@H](C(C)C)C(=O)O[C@@H]2C)c(N)c1=O [ActD, Actinomycin D] (I: T[dV]P[Sar][NMeV] / II: T[dV]P[Sar][NMeV]; ester I:1-I:C, II:1-II:C; linker I:N-II:N via Actinocin(9to1)) | negatively affected |  |  |
| O=C(O)Cn1nnc(-c2ccc(CN(CCCCOc3ccc(CN4CCCC4)cc3)CCc3ccccc3)cc2)n1 [TH1834] |  | Reduction | downregulated |
| OC[C@H]1O[C@@H](n2cnc3cc(Cl)c(Cl)cc32)[C@H](O)[C@@H]1O [DRB, 5,6-Dichlorobenzimidazole 1-β-D-ribofuranoside] | negatively affected |  |  |
| CCCCCCCc1ccc(CCc2cccc(O)c2C(=O)O)cc1 [MG149] |  | Reduction | downregulated |
